In patent publication US10624883B2, “Pulmonary hypertension preventative or therapeutic agent containing component exhibiting selenoprotein P activity-inhibiting effect” (priority 2016, dated 2020):
Entries after “also recorded” stand apart in the source; their conditions may differ.

Legend:
SeP = SeP protein levels in lungs of Sugen/hypoxia rats; format: in vivo, rat; conditions: 5 mg/kg oral for 28 days, hypoxia+SU5416 rats
Description: (§1) Rats (Sprague-Dawley, male, 7- to 10-week-old) were injected subcutaneously with a VEGF-receptor inhibitor SU5416 (Sigma-Aldrich) (20 mg per kg body weight) under isoflurane anesthesia and were then exposed to hypoxia (10% O2) for 3 weeks (hypoxia+SU5416). On day 21, the rats were randomized to be orally administered sanguinarine (5 mg per kg body weight) or vehicle under normoxia (21% O2) for 4 weeks. The vehicle administration group is expressed as vehicle controls. In addition, rats injected with saline on day 1 and exposed to normoxia for 7 weeks were used as (normoxic) controls. […] On day 49, the rats were anesthetized with isoflurane (1.0%) to measure RVSP, RVH, and pulmonary vascular remodeling. Thus, the development of PH was assessed.
FIG. 10(D) includes an image and graph for showing quantification of SeP protein levels in normoxic control rats or hypoxia+SU5416 rats with or without sanguinarine treatment. Data represent the mean±SEM. *p<0.05. Comparisons of parameters were performed with one-way or two-way ANOVA and Tukey's HSD test for multiple comparisons.

[1] = tested on: hypoxia-induced pulmonary hypertension mouse model; assay: Hypoxia-induced pulmonary hypertension mouse model (RVSP, right ventricular hypertrophy); format: in vivo; conditions: 10% O2 hypoxia, day 28
Description: Eight-week-old male C57BL6/J mice (n=8 per group) were administered sanguinarine (5 mg/kg/day, daily for 28 days, oral administration). A product available from SSX (Cat. No. 1845, Sanguinarine Chloride 10 mg) was used as sanguinarine. A preparation method for a test solution for a treatment group was as follows: sanguinarine was first dissolved at 100 μg/μl in 100% DMSO and the solution was further dissolved in phosphate buffered saline (PBS) so that the final concentration of sanguinarine was 1 μg/μl. A test solution for a control group was prepared by dissolving DMSO at the same concentration in PBS (1% DMSO).
From the test starting day, the mice were bred under a 10% O2 hypoxic environment to generate a hypoxia-induced pulmonary hypertension mouse model. From the same day, the test solutions for the control group and the treatment group were directly administered into the stomachs of the mice once daily through the use of a probe for mice. Regarding doses, the mice were measured for their body weights daily during a test period, and doses were calculated separately for the mice so as to achieve 5 mg/kg/day.
An administration period (=hypoxic breeding period) was 28 days.
After daily administration for 28 days, pulmonary hemodynamics and right ventricular hypertrophy were assessed at the end point (on day 28 after the start of hypoxic stimulation). The assessment of pulmonary hemodynamics was performed by directly measuring right ventricular systolic pressure (RVSP) with a pressure measurement catheter (Transonic Scisense) inserted into the right jugular vein. In addition, the assessment of right ventricular hypertrophy was performed by measuring right ventricular free wall (RV) weight in a dissected heart tissue to calculate its ratio to left ventricle plus septum (LV+Septum) weight (RV/(LV+Septum)). RV/(LV+Septum) serves as an indicator of right ventricular hypertrophy. A larger numerical value for RV/(LV+Septum) indicates a higher degree of right ventricular hypertrophy. In addition, in order to assess pulmonary vascular remodeling, staining for α-smooth muscle actin (α-SMA) in a lung tissue section was performed on day 28. Pulmonary vascular remodeling was assessed by performing immunostaining for α-smooth muscle actin (α-SMA) in a lung tissue section and quantitatively assessing the extent of muscularization (classified into three stages, i.e., non-muscularization, partial muscularization, and full muscularization) of α-SMA-positive distal pulmonary arteries. Specifically, in each section, about 100 pulmonary arteries having diameters of from 20 μm to 70 μm were each assessed for a double elastic lamina. In this assessment, a pulmonary artery in which a double elastic lamina including an internal elastic lamina and an external elastic lamina was visible for less than 50% of the entire periphery of the pulmonary artery was considered non-muscularized, a pulmonary artery in which the double elastic lamina was visible for 50% or more and less than 100% of the entire periphery of the pulmonary artery was considered partially muscularized, and a pulmonary artery in which the double elastic lamina was visible throughout the entire periphery of the pulmonary artery was considered fully muscularized.
Eight-week-old male C57BL6/J mice (n=8 per group) were administered cinobufotalin (5 mg/kg/day, daily for 28 days, intraperitoneal administration). A product available from Sigma (Cat. No. C1147-10MG, Cinobufotalin 10 mg) was used as cinobufotalin. A preparation method for a test solution for a treatment group was as follows: cinobufotalin was first dissolved at 30 μg/μl in 100% DMSO and the solution was further dissolved in PBS so that the final concentration of cinobufotalin was 0.3 μg/μl. A test solution for a control group was prepared by dissolving DMSO at the same concentration in PBS (1% DMSO). […]

[2] = Body weight and food consumption in Sugen/hypoxia rats; format: in vivo, rat; conditions: 5 mg/kg oral for 28 days
Description: as §1
FIG. 10(B) is a graph for showing the time-course of body weight from the starting point of administration of sanguinarine or vehicle for 4 weeks in Sugen/hypoxia rats (n=12). Data represent the mean±SEM.

Sugen/hypoxia rat model = assay: Sugen/hypoxia-induced pulmonary hypertension rat model (RVSP, RVH); format: in vivo; conditions: 5 mg/kg oral for 28 days, started day 21 after hypoxia+SU5416
Description: In this test, littermates or vehicle treatment groups were used as controls. A Sugen/hypoxia-induced hypertension rat model was used to assess pulmonary hypertension (PH) (Non-patent Literature 4). In order to assess the development of pulmonary hypertension, right ventricular systolic pressure (RVSP) and right ventricular hypertrophy (RVH) were measured (Non-patent Literatures 4 to 6).
For right heart catheterization, a 1.4-F (for rats) pressure measurement catheter (Transonic Scisense) was inserted into the right jugular vein and advanced into the right ventricle to measure RVSP (Non-patent Literature 7).
In the Sugen/hypoxia model, rats (Sprague-Dawley, male, 7- to 10-week-old) were injected subcutaneously with a VEGF-receptor inhibitor SU5416 (Sigma-Aldrich, St Louis, Mo.) (20 mg per kg body weight) under isoflurane anesthesia and were then exposed to hypoxia (10% O2) for 3 weeks. […] All data were analyzed using the PowerLab data acquisition system (AD Instruments, Bella Vista, Australia) and were averaged over 50 sequential beats (Non-patent Literatures 4 to 6).
Formaldehyde-fixed dry hearts were dissected and the right ventricular free wall (RV) was removed from the left ventricle (LV) and septum. The ratio of right ventricular free wall (RV) weight to left ventricle plus septum (LV+Septum) weight [RV/(LV+S)] was measured to assess the extent of RVH (Non-patent Literature 4). […]

selenoprotein P protein = assay: Western blotting of selenoprotein P protein in lungs of hypoxia-induced pulmonary hypertension mice; format: in vivo, mouse; conditions: C57BL/6 mice, 5 mg/kg/day oral, daily for 28 days, 10% hypoxia
Description: In addition, regarding sanguinarine, C57BL/6 mice (n=8 per group) were administered sanguinarine (5 mg/kg/day, daily for 28 days, oral administration). At the same time, the mice were bred under a 10% hypoxic environment. Thus, a hypoxia-induced pulmonary hypertension mouse model was generated and investigated.

[3] = 5 mg/kg/day oral, daily for 28 days
[4] = 5 mg/kg/day intraperitoneal, daily for 28 days
[5] = 1 mg/kg/day intraperitoneal, alternate days for 28 days

## C[n+]1cc2c3c(ccc2c2ccc4cc5c(cc4c21)OCO5)OCO3 [sanguinarine]
SeP
  SeP expression in the lungs: significantly reduced
[1]; [3]
  right ventricular hypertrophy (RV/(LV+Septum)) vs control group: significantly reduced
  right ventricular systolic pressure vs control group: significantly reduced
[2]
  influence on body weight vs vehicle control: no significant differences; also recorded: no influence
  influence on food consumption vs vehicle control: no significant differences; also recorded: no influence
Sugen/hypoxia rat model
  RVH [RV/(LV+S)] vs vehicle controls: reduced
  RVSP vs vehicle controls: reduced
Selenoprotein P protein
  selenoprotein P protein expression in the lungs vs control: significantly suppressed

## CC(=O)OC1C(c2ccc(=O)oc2)C2(C)CCC3C(CCC4(O)CC(O)CCC34C)C23OC13 [cinobufotalin, [(1R,2R,2aR,3aS,5aS,7S,9aR,11aR)-5a,7-dihydroxy-9a,11a-dimethyl-1-(2-oxo-2H-pyran-5-yl)hexadecahydronaphtho[1′,2′:6,7]indeno[1,7a-b]oxiren-2-yl acetate]]
[1]; [4]
  right ventricular hypertrophy (RV/(LV+Septum)) vs control group: significantly reduced
  right ventricular systolic pressure vs control group: significantly reduced

## COC(=O)[C@]1(C)CC[C@]2(C)CC[C@]3(C)C4=CC=C5C(=CC(=O)C(O)=C5C)[C@]4(C)CC[C@@]3(C)[C@@H]2C1 [pristimerin, methyl (2R,4aS,6aS,12bR,14aS,14bR)-10-hydroxy-2,4a,6a,9,12b,14a-hexamethyl-11-oxo-1,2,3,4,4a,5,6,6a,11,12b,13,14,14a,14b-tetradecahydropicene-2-carboxylate]
[1]; [5]
  right ventricular hypertrophy (RV/(LV+Septum)) vs control group: significantly reduced
  right ventricular systolic pressure vs control group: significantly reduced
